What was measured:
[1] = tested on: rat carrageenan-induced inflammatory pain model; test: Rat carrageenan-induced inflammatory pain model: paw edema, paw volume, exudate amount; format: in vivo; conditions: for exudate amount of the paw: FIG. 3; for paw edema: vs negative control (distilled water), hyaluronic acid 200 mg/kg/day by drinking for 4 weeks, ibuprofen 100 mg/kg oral 1 hour before induction, FIG. 1
Description: Rats (Wistar (SPF), male, four-weeks-old at the time of purchase, purchased from Japan SLC, Inc.) were acclimatized and fed for 7 days, and then grouped based on their body weights on the day before administration. The above-mentioned test solution was administered by drinking ad libitum for 4 weeks.
It should be noted that the 1% λ-carrageenan solution was stirred with a stirrer until immediately before use (induction). After that, a paw volume was measured using a paw volume measuring apparatus. In addition, blood was collected from the rat pain model under isoflurane anesthesia. After that, an exudate was collected from the hind paw, and the measurement of PGE2 and bradykinin in the exudate was performed.
The tuberal region of the pisiform bone outside the rat right hind paw was marked with marking ink so that volume measurement was uniform. Distilled water was charged up to a target water surface of a measuring chamber of the paw volume measuring apparatus. A measurer restrained the rat, and while lightly pressing the femoral region of the paw to be measured, put the paw at a position at which the mark leveled off and reached the target water surface. Then, a paw volume was recorded using a foot switch connected to the apparatus. It should be noted that the measurement of the paw volume was performed three times for each animal individual, and a mean thereof was determined.
Regarding a measured value for the paw volume, an amount of change Δ mL was determined from the following calculation equation for each individual animal, and a group mean and its standard error (SE) were calculated.
Amount of change A mL=Value at the time of each measurement after carrageenan administration−Value before (0 hours after) carrageenan administration
(§1) A 15-mL centrifugation tube, which had been measured for its tare weight in advance, was prepared, and a container having a 2-mL pipette tip cut at the tip in the centrifugation tube was prepared. The induced paw of the animal after the end of the blood collection was amputated from 1 cm above the malleolus using bone scissors or the like, and measured for its weight. The skin at the plantar site of the rat was deeply incised using a scalpel to make 2 incisions in a length direction by 4 incisions in a width direction which is perpendicular to the length direction. This paw skin tissue was placed with the toe down into the above-mentioned container, and cooling centrifugation was performed using a centrifugation machine at 3,000 rpm for 15 minutes to collect an exudate. In addition, in a non-treated group, the collection was performed from the left and right hind paws. The mass of the collected exudate was measured using an electrobalance. To the exudate after the end of the mass measurement were added 100 μL of 20 mM aspirin-containing physiological saline and 250 μL of 20 unit/mL heparin-containing physiological saline, the resultant was centrifuged, and then the supernatant was used as an exudate sample. In addition, the exudate was dispensed into a tube. The exudate sample was frozen with liquid nitrogen and cryopreserved until use.

bradykinin = test: Measurement of bradykinin in paw exudate (EIA), rat carrageenan model; format: in vivo; conditions: for total amount of bradykinin in exudate: vs negative control, FIG. 5
Description: (§2) Rats (Wistar (SPF), male, four-weeks-old at the time of purchase, purchased from Japan SLC, Inc.) were acclimatized and fed for 7 days, and then grouped based on their body weights on the day before administration. The above-mentioned test solution was administered by drinking ad libitum for 4 weeks. After the administration by drinking for 4 weeks, the rats were selected and grouped so that there was no difference in body weight between groups at the time of carrageenan induction (see Table 1), and then the rats were each used for a pain model to be described later.
(§3) A rat pain model was produced by subcutaneously injecting 0.1 mL of a 1% A-carrageenan (manufactured by SIGMA) solution into the plantar surface of the rat hind paw with reference to methods of Ohuchi et al. (Kazuo Ohuchi, “Seibutsu Yakkagaku Jikken Koza (Biological pharmaceutical science experimental course) (Vol. 12) Inflammation and Allergy I-1”, Chapter 1, foreign matter-induced inflammation model: pp. 30-51) and Masahiro Noguchi et al. (Masahiro Noguchi, et al: Enzymologic and pharmacologic profile of loxoprofen sodium and its metabolites. Biol. Pharm. Bull. 2005.28.2075-2079). It should be noted that the 1% λ-carrageenan solution was stirred with a stirrer until immediately before use (induction). After that, a paw volume was measured using a paw volume measuring apparatus. In addition, blood was collected from the rat pain model under isoflurane anesthesia. After that, an exudate was collected from the hind paw, and the measurement of PGE2 and bradykinin in the exudate was performed.
as §1
The measurement of bradykinin in the exudate was performed using “Bradykinin, EIA Kit, High Sensitivity, Bachem Americans.” The operations were performed in conformity with the accompanying protocol of the kit.

PGE2 = test: Measurement of PGE2 in paw exudate (ELISA), rat carrageenan model; format: in vivo; conditions: vs negative control; for total amount of PGE2 in exudate: FIG. 7; for concentration of PGE2 in exudate: FIG. 8
Description: as §2, §3, §1
The measurement of PGE2 (ELISA) in the exudate was performed using “Prostaglandin E2 Kit-Monoclonal, ACE.” The operations were performed in conformity with the accompanying protocol of the kit.

[2] = tested on: TGF-β1 mRNA in human colon adenocarcinoma-derived HT29 cells; test: TGF-β expression promoting action in HT29 cells (TGF-β1 mRNA, real-time PCR); format: cell-based; conditions: hyaluronic acid 0.01 mg/ml, LPS 200 ng/mL added 1 hour later, 24 hours after addition of hyaluronic acid, control = 1, FIG. 11
Description: In order to confirm the TGF-β expression promoting action of hyaluronic acid in human colon adenocarcinoma-derived HT29 cells (purchased from DS Pharma Biomedical Co., Ltd.), the measurement of the production amount of TGF-β mRNA in the case of treating HT29 cells with hyaluronic acid was performed by the following method.
Hyaluronic acid was added to a culture supernatant, and 1 hour after that, a lipopolysaccharide (LPS) was added at a concentration of 200 ng/mL. 23 hours after that, mRNA of cells was collected, and the determination of TGF-β1 mRNA using real-time PCR equipment (Mx 3005, Agilent Technologies) was performed. First, cDNA was synthesized from mRNA by reverse transcription, and a PCR reaction was performed using the cDNA. That is, an amplification reaction involving repeating thermal denaturation (95° C., 10 seconds) and annealing (60° C., 20 seconds) 40 times was performed, and simultaneously, DNA amplification was measured by monitoring fluorescence from CybrGreen to be conjugated with DNA, and determination in the case of defining the mRNA amount of a control as 1 was performed. The human TGF-31 primers used were designed with the software Primer BLAST made available to the public by the National Center for Biotechnology Information (NCBI). Their sequences are 5′-[…]-3′ (Forward) and 5′-[…]-3′ (Reverse). […]

TGF-β1 = test: Measurement of TGF-β1 in plasma (ELISA), rat carrageenan model; format: in vivo; conditions: 6 hours after carrageenan induction, FIG. 4
Description: as §2
A rat pain model was produced by subcutaneously injecting 0.1 mL of a 1% A-carrageenan (manufactured by SIGMA) solution into the plantar surface of the rat hind paw with reference to methods of Ohuchi et al. (Kazuo Ohuchi, “Seibutsu Yakkagaku Jikken Koza (Biological pharmaceutical science experimental course) (Vol. 12) Inflammation and Allergy I-1”, Chapter 1, foreign matter-induced inflammation model: pp. 30-51) and Masahiro Noguchi et al. (Masahiro Noguchi, et al: Enzymologic and pharmacologic profile of loxoprofen sodium and its metabolites. Biol. Pharm. Bull. 2005.28.2075-2079). It should be noted that the 1% λ-carrageenan solution was stirred with a stirrer until immediately before use (induction). After that, a paw volume was measured using a paw volume measuring apparatus. […]

[3] = Measurement of concentration of hyaluronic acid in plasma; format: in vivo, rat
Description: as §2
(§4) The rat pain model under anesthesia with isoflurane (manufactured by Mylan Pharmaceuticals, Inc.) was subjected to abdominal section, and blood was collected through the caudal vena cava of the abdomen. A 5-mL disposable injection syringe filled with heparin sodium (Wako Pure Chemical Industries, Ltd.) and a 22-G injection needle were used for the blood collection. Plasma was rapidly separated from the collected blood using a centrifuge, dispensed into a tube, and cryopreserved until use.
The measurement of the concentration of hyaluronic acid in plasma was performed using “Hyaluronan Assay Kit (Seikagaku Biobusiness Corporation).”
The concentrations of hyaluronic acid in plasma of the negative control (distilled water-administered group) and the test solution-administered group were measured. The concentrations of hyaluronic acid in plasma were measured before carrageenan induction and 6 hours and 8 hours after carrageenan induction.

IL-10 = test: Measurement of IL-10 in plasma, rat carrageenan model; format: in vivo; conditions: oral hyaluronic acid 200 mg/kg/day 4 weeks
Description: as §2, §4
The measurement of IL-10 in plasma was performed using “Quantikine Rat IL-10 (R & D Systems, Inc.).” The operations were performed in conformity with the accompanying protocol of the kit.

[4] = 6 hours after carrageenan induction
[5] = 6 hours after carrageenan induction, vs negative control, hyaluronic acid 200 mg/kg/day 4 weeks, ibuprofen 100 mg/kg oral
[6] = 3 hours after carrageenan induction
[7] = 6 hours after carrageenan induction, vs negative control (distilled water), FIG. 6

Molecule | exudate amount of the paw ([1]; 3 hours after carrageenan induction, vs negative control, ibuprofen 100 mg/kg oral) | paw edema [1, 4] | exudate amount of the paw [1, 5] | total amount of bradykinin in exudate (bradykinin; [6]) | concentration of bradykinin in exudate (bradykinin; [7]) | total amount of bradykinin in exudate (bradykinin; [4]) | total amount of PGE2 in exudate (PGE2; [6]) | concentration of PGE2 in exudate (PGE2; [6]) | total amount of PGE2 in exudate (PGE2; [4]) | concentration of PGE2 in exudate (PGE2; [4]) | amount of TGF-β1 mRNA relative to control (no addition of hyaluronic acid) [2] [times] | paw volume ([1]; 6 hours after carrageenan induction, vs negative control, hyaluronic acid 200 mg/kg/day 4 weeks, ibuprofen 100 mg/kg oral, FIG. 2) | concentration of TGF-β in plasma compared to positive control (ibuprofen) (TGF-β1; same timing) | concentration of TGF-β in plasma (TGF-β1; hyaluronic acid 200 mg/kg/day 4 weeks) | concentration of bradykinin in exudate (bradykinin; 3 hours after carrageenan induction, vs distilled water group, FIG. 6) | concentration of bradykinin in exudate compared to positive control (ibuprofen) (bradykinin; 3 hours and 6 hours after carrageenan induction, FIG. 6) | concentration of hyaluronic acid in plasma ([3]; 6 hours after carrageenan induction, FIG. 9) | concentration of hyaluronic acid in plasma ([3]; 8 hours after carrageenan induction, FIG. 9) | concentration of hyaluronic acid in plasma ([3]; before carrageenan induction, after continuous ingestion for 4 weeks (200 mg/kg/day), FIG. 9 left panel) | increase in IL-10 in plasma (IL-10)
CC(C)Cc1ccc(C(C)C(=O)O)cc1 (centres unmarked) [ibuprofen, reference compound] | significantly smaller than those in the negative control | milder than in the negative control | significantly smaller than those in the negative control | smaller than those in the negative control | significantly smaller concentration of bradykinin than that in the negative control | smaller than those in the negative control (statistically significant 6 hours after carrageenan induction) | smaller than those in the negative control | significantly smaller than those in the negative control | smaller than those in the negative control (statistically significant 6 hours after carrageenan induction) | significantly smaller than those in the negative control | – | – | – | – | – | – | – | – | – | –
hyaluronic acid [listing 1 of 2 here] | – | – | – | – | – | – | – | – | – | – | 2.14 | – | – | – | – | – | – | – | – | –
hyaluronic acid [listing 2 of 2 here] | – | milder than in the negative control | smaller than that in the negative control | – | significantly smaller than those in the distilled water group | significantly smaller than that in the negative control | – | – | significantly smaller than that in the negative control | significantly smaller than that in the negative control | – | significantly smaller than that in the negative control | higher than the concentration of TGF-β in the positive control | increased remarkably | significantly smaller than those in the distilled water group | lower than those in the positive control | almost no change | almost no change | did not cause any change | not observed

From US20150209384A1, “ORAL PREPARATION FOR PROMOTING EXPRESSION OF TGF-BETA, ORAL PREPARATION FOR INHIBITING PRODUCTION OF PAIN-MEDIATING SUBSTANCE, AND ORAL PREPARATION FOR PREVENTING EDEMA” (KEWPIE CORPORATION, priority 2012, published 2015)
